Data published in ChEMBL document CHEMBL5030547, “Synthesis and biological studies of new piperidino-1,2,3-triazole hybrids with 3-aryl isoxazole side chains” (Bioorg Med Chem Lett, 2021).

What was measured:
Huh-7 = experiment: Cytotoxicity against human Huh-7 cells assessed as reduction in cell viability after 48 hrs; type: functional, cell-based; settings: Huh-7, 48 h
Caco-2 = experiment: Cytotoxicity against human Caco-2 cells assessed as reduction in cell viability after 48 hrs; type: functional, cell-based; settings: Caco-2, 48 h
Fibroblast = experiment: Cytotoxicity against human skin fibroblast cells assessed as reduction in cell viability after 48 hrs; type: cell-based
PC-3 = experiment: Cytotoxicity against human PC-3 cells assessed as reduction in cell viability after 48 hrs; type: functional, cell-based; settings: PC-3, 48 h
MDA-MB-231 = experiment: Cytotoxicity against human MDA-MB-231 cells assessed as reduction in cell viability after 48 hrs; type: functional, cell-based; settings: MDA-MB-231, 48 h
MDA-MB-468 = experiment: Cytotoxicity against human MDA-MB-468 cells assessed as reduction in cell viability after 48 hrs; type: functional, cell-based; settings: MDA-MB-468, 48 h
HCT-116 = experiment: Cytotoxicity against human HCT-116 cells assessed as reduction in cell viability after 48 hrs; type: functional, cell-based; settings: HCT-116, 48 h
MCF7 [1] = experiment: Cytotoxicity against human MCF7 cells assessed as reduction in cell viability after 48 hrs; type: functional, cell-based; settings: MCF7, 48 h
[2] = Inhibition of Bcl-XL- PUMA protein-protein interaction in human MCF7 cells incubated for overnight by BRET assay; type: cell-based
MCF7 [3] = experiment: Inhibition of Bcl-XL- PUMA protein-protein interaction in human MCF7 cells at 20 uM incubated for overnight by BRET assay relative to control; type: cell-based

Compound | IC50 (Huh-7; read-out: IC50) [µM] | IC50 (Caco-2) [µM] | IC50 (Fibroblast) [µM] | IC50 (PC-3) [µM] | IC50 (MDA-MB-231) [µM] | IC50 (MDA-MB-468) [µM] | IC50 (HCT-116) [µM] | IC50 (MCF7 [1]) [µM] | IC50 (Huh-7) [µM] | IC50 [2] [µM] | inhibition (MCF7 [3]) [%]
O=[N+]([O-])c1ccc(CN2CCC(n3cc(CC(OCc4cc(-c5ccc(F)cc5)no4)c4ccc(Br)cc4)nn3)CC2)cc1 (centres undefined) | 2 | 3 | > 25 | > 25 | > 25 | 4 | > 25 | 7 |  |  | 
O=[N+]([O-])c1ccc(CN2CCC(n3cc(CC(OCc4cc(-c5ccccc5Br)no4)c4ccc(Br)cc4)nn3)CC2)cc1 (centres undefined) | > 25 | 3 | > 25 | > 25 | > 25 | > 25 | > 25 | 6 |  |  | 
COc1ccc(-c2cc(COC(Cc3cn(C4CCN(Cc5ccc([N+](=O)[O-])cc5)CC4)nn3)c3ccc(Br)cc3)on2)cc1 (centres undefined) | 2 | 3 | > 25 | 3 | > 25 | 9 | > 25 | 4 |  |  | 
CC[C@H](CO)Nc1nc(NCc2ccccc2)c2ncn(C(C)C)c2n1 [SELICICLIB] |  |  | 15 | 11 | 17 | 18 |  |  | 9 |  | 
COc1cccc(-c2cc(COC(Cc3cn(C4CCN(Cc5ccc([N+](=O)[O-])cc5)CC4)nn3)c3ccc(Br)cc3)on2)c1 (centres undefined) | 5 | 5 | > 25 | > 25 | > 25 | > 25 | > 25 | 7 |  |  | 
O=[N+]([O-])c1ccc(CN2CCC(n3cc(CC(OCc4cc(-c5cccc(Br)c5)no4)c4ccc(Br)cc4)nn3)CC2)cc1 (centres undefined) | 3 | 5 | > 25 | > 25 | > 25 | > 25 | > 25 | 6 |  |  | 
N#Cc1cccc(-c2cc(COC(Cc3cn(C4CCN(Cc5ccc([N+](=O)[O-])cc5)CC4)nn3)c3ccc(Br)cc3)on2)c1 (centres undefined) | 3 | 3 | > 25 | > 25 | > 25 | > 25 | > 25 | 2 |  |  | 
O=[N+]([O-])c1ccc(CN2CCC(n3cc(CC(OCc4cc(-c5ccccc5F)no4)c4ccc(Br)cc4)nn3)CC2)cc1 (centres undefined) | 2 | 4 | > 25 | 6 | 4 | 4 | 9 | 8 |  | 3.8 | 10
O=[N+]([O-])c1ccc(CN2CCC(n3cc(CC(OCc4cc(-c5ccccc5)no4)c4ccc(Br)cc4)nn3)CC2)cc1 (centres undefined) | 7 | 7 | > 25 | > 25 | > 25 | 3 | > 25 | > 25 |  |  | 
O=[N+]([O-])c1ccc(CN2CCC(n3cc(CC(OCc4cc(-c5ccc(Br)cc5)no4)c4ccc(Br)cc4)nn3)CC2)cc1 (centres undefined) | 2 | 3 | > 25 | > 25 | > 25 | 5 | > 25 | 4 |  |  | 
COc1cccc2c1C(=O)c1c(O)c3c(c(O)c1C2=O)C[C@@](O)(C(=O)CO)C[C@@H]3O[C@H]1C[C@H](N)[C@H](O)[C@H](C)O1 [DOXORUBICIN] | 0.02 |  | 0.02 |  | 0.04 | 0.06 | 0.08 | 0.1 |  |  | 
O=[N+]([O-])c1ccc(CN2CCC(n3cc(CC(OCc4cc(-c5cccc(F)c5)no4)c4ccc(Br)cc4)nn3)CC2)cc1 (centres undefined) | 3 | 5 | 10 | 9 | 5 | 3 | 6 | 8 |  |  | 
COc1ccccc1-c1cc(COC(Cc2cn(C3CCN(Cc4ccc([N+](=O)[O-])cc4)CC3)nn2)c2ccc(Br)cc2)on1 (centres undefined) | 5 | > 25 | > 25 | > 25 | > 25 | > 25 | > 25 | 3 |  |  | 
N#Cc1ccc(-c2cc(COC(Cc3cn(C4CCN(Cc5ccc([N+](=O)[O-])cc5)CC4)nn3)c3ccc(Br)cc3)on2)cc1 (centres undefined) | 5 | 2 | > 25 | 2 | > 25 | 5 | > 25 | 3 |  |  | 
